Data on 3 compounds can be found in patent US20160256398A1 (H. Lundbeck A/S, priority 2009, published 2016).

“Also recorded” adds a separate entry of the source.

The conditions of data set [1]: depressed patients; cited from earlier work.
Data set [2] is described as follows: 5-way crossover study in healthy volunteers: adverse events by administration form. The data set is classed as in vivo, human. An excerpt: (§1) 23 subject (12 men and 11 women) participated in the trial; due to drop-outs however, not all 23 subjects received all five treatments—see below for details.
The proximal small bowel is approximately the first meter of the jejunum, and the distal small bowel is approximately the last meter of the ileum, including terminal ileum up to the ileo-caecal junction.
The Enterion™ capsule allows targeted delivery of an active substance into any region of the GI tract. The capsule contains a drug reservoir and a separate compartment for a radioactive tracer. The floor of the reservoir acts a piston which is held back against a spring by a polymer filament. By means of gamma scintigraphy (an imaging technique) the exact position of the capsule in the GI tract can be determined real-time. When the capsule has reached its desired position in the GI tract, a magnetic field is applied which causes an antenna in the capsule all to heat up. The heated antenna is in contact with the polymer filament which softens and eventually breaks which sets the piston (reservoir floor) free and rapidly releases the drug. The Enterion™ capsule is available from Partner Tech, UK.
(§2) Blood samples were obtained at regular intervals 240 hours post-dosing of the IR tablet, post-start of the infusion and post-activation of the Enterion™ capsule. […] Additionally, adverse events were recorded. Food (soup) was provided 4 hours post-dose and dinner 10 hours post-dose.
All 23 subjects received treatments A and B; 22 subjects received treatment C; 20 subjects received treatment D; and 19 received treatment E.
The table below summarises the adverse events recorded during the course of the trial.

The conditions of data set [3]: cited from earlier work.
A short description of data set [4]: 5-way crossover study in healthy volunteers: plasma concentration-time profile. The data set is classed as in vivo, human. As to the method:
as §1, §2
The plasma concentration time profiles are depicted in FIG. 1.

Data set [5] relates to acetylcholine, norepinephrine, dopamine, and serotonin in brain regions associated with mood regulation. The conditions noted are these: extracellular levels in rat brains; cited from earlier work.
[6] abbreviates: Regimen B: 20 mg, single oral dose, two 10 mg IR tablets, 23 subjects.
The mark [7] stands for this setting: Regimen C: 9 mg iv infusion over 6 hours, 22 subjects.
Where [8] appears, read: Regimen D: 20 mg solution via Enterion capsule to proximal small bowel, 20 subjects.
The mark [9] stands for this setting: Regimen E: 20 mg solution via Enterion capsule to distal small bowel, 19 subjects.

As to `Fc1ccc([C@@H]2CCNC[C@H]2COc2ccc3c(c2)OCO3)cc1` [paroxetine], in data set [1], the “nausea with enteric coated, sustained release tablet compared with IR tablet” value is on record as “less nausea”; the “other GI related adverse events such as diarrhea, abnormal ejaculation, female genital disorders and dizziness with enteric coated tablet compared with IR tablet” value is recorded as “appeared to increase”.

As to `Br.Cc1ccc(Sc2ccccc2N2CCNCC2)c(C)c1` [Compound I HBr, 1-[2-(2,4-dimethyl-phenylsulfanyl)-phenyl]piperazine hydrobromide], in data set [2] (setting [6]), the Abdominal pain is 2 no of subjects, the Fatigue is 2 no of subjects, the Headache is 3 no of subjects and the “Lightheadedness/postural dizziness (no BP drop)” value is on record as 5 no of subjects. In data set [2] (setting [6]), the Nausea is listed as 9 no of subjects, the Retching is on record as 1 no of subjects and the Vomiting is recorded as 2 no of subjects. Moreover, in data set [2] (setting [7]), the “Abnormal liver function tests” value is given as 1 no of subjects, the Headache was 2 no of subjects, the Nausea is on record as 1 no of subjects and the Postural hypotension was 2 no of subjects. In addition, in data set [2] (setting [8]), the Abdominal pain is 1 no of subjects, the Headache is 1 no of subjects, the “Lightheadedness/postural dizziness (no BP drop)” value is recorded as 1 no of subjects and the Nausea was 3 no of subjects. Also, in data set [2] (setting [8]), the Postural hypotension is listed as 1 no of subjects, the Pruritis is given as 1 no of subjects and the Vomiting is given as 1 no of subjects. In data set [2] (setting [9]), the Abdominal pain is reported as 1 no of subjects, the Nausea is recorded as 2 no of subjects, the Postural hypotension was 3 no of subjects and the Rash was 1 no of subjects.

For `Cc1ccc(Sc2ccccc2N2CCNCC2)c(C)c1` [Compound I, 1-[2-(2,4-dimethyl-phenylsulfanyl)-phenyl]piperazine], the “sleep and sexually related adverse events in depressed patients” value in data set [3] (clinical trials disclosed in WO 2008/113359) is “surprisingly low level”. Also, in data set [3] (dosed at 5 and 10 mg), the “efficacy in the treatment of major depressive disorder” value is “efficacious”; the “safety and tolerability in first clinical trial” value is “safe and well-tolerated”. Also, in data set [2] (regimen B, IR tablet), the “overall number of adverse events” value was “most adverse events”. Further, the “overall number of adverse events” value in data set [2] (regimen C, D and E: i.v. infusion, released in the proximal or distal small bowel) was “markedly lower number of adverse events”. Besides, the “plasma concentration-time profile, dependence on administration form” value in data set [4] (IR tablet versus release in the small intestine (FIG. 1, regimens B, D, E)) is “virtually independent on whether Compound I is administered in an IR tablet or released in the small intestine”. In addition, the “characteristics of plasma concentration-time profile” value in data set [4] (administration in an IR composition) is “relative late tmax and a plasma concentration plateau around tmax”. Moreover, the “levels of acetylcholine, norepinephrine (noradrenaline), dopamine and serotonin in brain” value in data set [5] is “increase; also recorded: significant increases”.
